Structures can show the parent of a compound that is named as a salt. ± gives the standard error.
How the values were obtained:
621-103 (TSC2-rescued) = assay: relative viability vs DMSO; higher = less cytotoxic; settings: serum: 10% FBS, 72 h
621-102 (TSC2-deficient) = assay: as above; settings: serum: 10% FBS, 72 h
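Note: immortalized renal angiomyolipoma cells stably carrying empty vector or TSC2, dosed in 384-well plates in DMEM, viability normalized to vehicle-treated wells within each plate.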

| SMILES | relative viability (621-103 (TSC2-rescued); 0.0001 µM) [%] | relative viability (621-103 (TSC2-rescued); 0.001 µM) [%] | relative viability (621-103 (TSC2-rescued); 0.01 µM) [%] | relative viability (621-103 (TSC2-rescued); 0.1 µM) [%] | relative viability (621-103 (TSC2-rescued); 1 µM) [%] | relative viability (621-103 (TSC2-rescued); 10 µM) [%] | relative viability (621-102 (TSC2-deficient); 0.0001 µM) [%] | relative viability (621-102 (TSC2-deficient); 0.001 µM) [%] | relative viability (621-102 (TSC2-deficient); 0.01 µM) [%] | relative viability (621-102 (TSC2-deficient); 0.1 µM) [%] | relative viability (621-102 (TSC2-deficient); 1 µM) [%] | relative viability (621-102 (TSC2-deficient); 10 µM) [%] |
| --- | --- | --- | --- | --- | --- | --- | --- | --- | --- | --- | --- | --- |
| C[C@]12CC[C@H](O)CC1=CC[C@@H]1[C@@H]2CC[C@]2(C)C(=O)CC[C@@H]12 [DHEA] | 73.1 ± 4.3 | 81.7 ± 1.7 | 80.2 ± 3.5 | 86.4 ± 7 | 79 ± 6 | 71.2 ± 8.4 | 105.05 ± 0.093 | 105 ± 1.6 | 99.6 ± 3.3 | 104 ± 2.9 | 97.2 ± 3.6 | 107 ± 1.8 |
| C[C@@H]1CCN(C(=O)CC#N)C[C@@H]1N(C)c1ncnc2[nH]ccc12 | 104 ± 4.3 | 100 ± 2.5 | 99.134 ± 0.051 | 102 ± 2.4 | 107 ± 0.27 | 96.7 ± 1.1 | 113 ± 2.6 | 98.5 ± 1.1 | 106 ± 4.8 | 109 ± 1.1 | 98.6 ± 2.7 | 104 ± 1.3 |
| Cc1c(CN2CCN(C(=O)[C@H](C)O)CC2)sc2c(N3CCOCC3)nc(-c3cnc(N)nc3)nc12 [GDC-0980 (RC7422)] | 100.8 ± 0.26 | 98.64 ± 0.9 | 91.5 ± 5.1 | 75.5 ± 4.4 | 35.3 ± 2.2 | 30.2 ± 2 | 101 ± 1.1 | 114 ± 1.6 | 99.9 ± 1.4 | 89.64 ± 0.5 | 39.1 ± 1 | 23.3 ± 0.98 |
| CNC(=O)c1ccc(C)c(-n2c(C)cc(OCc3ccc(F)cc3F)c(Br)c2=O)c1 | 102 ± 4.2 | 102 ± 2.3 | 99 ± 1 | 97.6 ± 0.99 | 99.4 ± 1.4 | 95 ± 2.2 | 105 ± 5.5 | 101 ± 2.1 | 109.06 ± 0.1 | 109 ± 1.6 | 97.8 ± 1.9 | 103 ± 0.24 |
| CC(C)n1nc(-c2cc3cc(O)ccc3[nH]2)c2c(N)ncnc21 [PP242] | 107 ± 6.5 | 107.2 ± 0.94 | 103 ± 2.7 | 80.1 ± 1.7 | 38 ± 0.41 | 23.13 ± 0.076 | 93.3 ± 6.1 | 95.7 ± 2.2 | 103 ± 2 | 101.44 ± 0.046 | 46 ± 1.6 | 16.86 ± 0.071 |
| C[C@]1(c2nc3c(C(N)=O)cccc3[nH]2)CCCN1 [ABT-888] | 104.8 ± 1 | 103.4 ± 0.84 | 104 ± 0.11 | 104.7 ± 0.51 | 105 ± 1.5 | 103 ± 1.3 | 129 ± 4.1 | 118 ± 1.3 | 124.3 ± 1.1 | 120 ± 1.6 | 122 ± 2.6 | 104 ± 3.6 |
| C[C@]12CCC(=O)C(O)=C1CC[C@@H]1[C@@H]2CC[C@]2(C)C(=O)CC[C@@H]12 [Formestane] | 105 ± 4 | 102.8 ± 0.63 | 105.2 ± 0.81 | 102 ± 1.2 | 101 ± 3.9 | 102.4 ± 0.89 | 105 ± 1.1 | 113 ± 3.5 | 120 ± 4.2 | 94.73 ± 0.3 | 98.9 ± 1.5 | 109 ± 0.99 |
| Cc1cn(-c2cc(NC(=O)c3ccc(C)c(Nc4nccc(-c5cccnc5)n4)c3)cc(C(F)(F)F)c2)cn1 [Nilotinib] | 82.55 ± 0.76 | 82.1 ± 1.1 | 89 ± 1.5 | 90.4 ± 1.4 | 84.5 ± 4.6 | 7.52 ± 0.28 | 70 ± 0.81 | 71.8 ± 7.4 | 70.7 ± 6.9 | 96.2 ± 7.2 | 93 ± 6.9 | 18.9 ± 7.6 |
| CCOC(=O)C1=C(COCCN)NC(C)=C(C(=O)OC)C1c1ccccc1Cl (stereo not given) [Amlodipine besylate] | 96.2 ± 2.2 | 91.1 ± 4.7 | 99.4 ± 2.6 | 102 ± 9 | 94.5 ± 5.2 | 57.2 ± 5 | 65.2 ± 8.7 | 72.3 ± 1.8 | 76.1 ± 6.9 | 71.3 ± 8.8 | 65.1 ± 9.1 | 53.6 ± 2.7 |
| Oc1ccc([C@@H]2Oc3ccc(O)cc3[C@@H]3CCC[C@@H]32)cc1 | 106 ± 1.5 | 101.57 ± 0.083 | 103 ± 1.1 | 106 ± 2.1 | 103.1 ± 0.19 | 66.2 ± 5.5 | 120.08 ± 0.051 | 124 ± 1.3 | 105 ± 1.5 | 108 ± 2.7 | 113 ± 5.1 | 65.5 ± 4 |
| CN1CCC(CNc2ccc3ncc(-c4cccc(OC(F)(F)F)c4)n3n2)CC1 [SGI-1776] | 94.08 ± 0.52 | 101 ± 1.6 | 101 ± 1.6 | 98.8 ± 2.8 | 82.6 ± 2 | 0.884 ± 0.13 | 93.93 ± 0.059 | 110 ± 1.1 | 98.6 ± 2.4 | 96.61 ± 0.13 | 86.6 ± 1.3 | 0.96 ± 0.17 |
| CO[C@H]1C[C@@H]2CC[C@@H](C)[C@@](O)(O2)C(=O)C(=O)N2CCCC[C@H]2C(=O)O[C@H]([C@H](C)C[C@@H]2CC[C@@H](OCCO)[C@H](OC)C2)CC(=O)[C@H](C)/C=C(\C)[C@@H](O)[C@@H](OC)C(=O)[C@H](C)C[C@H](C)/C=C/C=C/C=C/1C [Everolimus (RAD001)] | 71.1 ± 3.2 | 69.7 ± 1.3 | 68.2 ± 1.6 | 71.6 ± 2 | 75.3 ± 2.6 | 67.6 ± 0.97 | 46.7 ± 2.2 | 56.4 ± 1.5 | 49.8 ± 4.2 | 52.7 ± 3.3 | 54.2 ± 3 | 50.3 ± 3.7 |
| C[C@H](N[C@@H](CCc1ccccc1)C(=O)O)C(=O)N1CCC[C@H]1C(=O)O [Enalaprilat] | 101 ± 4 | 101.1 ± 0.31 | 95.29 ± 0.25 | 98.36 ± 0.18 | 101 ± 2.5 | 96.34 ± 0.17 | 97.6 ± 3.3 | 100 ± 4.3 | 96.26 ± 0.64 | 98.48 ± 0.16 | 95.91 ± 0.29 | 101.3 ± 0.23 |
| CC(C)NCC(O)c1ccc(NS(C)(=O)=O)cc1 (stereo not given) [Sotalol HCl] | 92 ± 1.4 | 115 ± 2 | 113 ± 1.3 | 118 ± 5.8 | 118 ± 1.5 | 108 ± 1.7 | 79.7 ± 5.2 | 99.6 ± 3.7 | 108.1 ± 1 | 115 ± 6.1 | 114 ± 2.9 | 107 ± 6.9 |
| CC(C[N+](C)(C)C)OC(N)=O (stereo not given) [Bethanechol chloride] | 96.28 ± 0.78 | 102 ± 1.9 | 105 ± 1.4 | 105 ± 0.93 | 103.7 ± 0.9 | 101.6 ± 0.12 | 103 ± 3.5 | 105 ± 3.1 | 104 ± 2.9 | 103.4 ± 0.49 | 100 ± 1.8 | 101 ± 3 |

— the supplement of paper PMC8960247
